Patent US20260070895A1, “CRYSTALLINE FORMS” (QUIMATRYX, S.L., priority 2022, published 2026)

Experiments:
[1] = Photostability in solution (THF and water), HPLC; assay type: physicochemical; settings: in solution (THF and water), sealed under nitrogen in amber glass bottles; for degradation (in words): up to 171 hours
Protocol: (§1) The method for determining purity by HPLC—used throughout these examples—used the following parameters:
(§2) The photostability of novel crystalline forms of QTX125 was assessed at solid state and in solution. Where ‘forced illumination’ conditions were used, samples were illuminated at 12 Klux/hour and 2.8 UV W/m^2/hour. Samples were stored at a temperature of 30° C. Following incubation, the chemical purity of QTX125 was measured by HPLC.
(§3) The following index is provided to aid navigation of the data presented in Tables 3.1.1 to 3.3.6: • 3.1.x—Assessment of the photostability of QTX125 Form 2. • 3.2.x—Assessment of the photostability of amorphous QTX125. • 3.3.x—Assessment of the photostability of the QTX125 1:2 L-Lysine adduct. • 3.x.1—Samples (at solid state) stored in unsealed clear glass bottles, subject to forced illumination. • 3.x.2—Samples (at solid state) sealed under nitrogen in clear glass bottles, subject to forced illumination. • 3.x.3—Samples (at solid state) sealed under nitrogen in amber glass bottles, illuminated under ambient laboratory conditions • 3.x.4—Samples (at solid state) sealed under nitrogen in amber glass bottles, subject to forced illumination. • 3.x.5—Samples (in solution) sealed under nitrogen in amber glass bottles, illuminated under ambient laboratory conditions. • 3.x.6—Samples (in solution) sealed under nitrogen in amber glass bottles, subject to forced illumination.

[2] = Photostability at solid state (chemical purity by HPLC after illumination); assay type: physicochemical; settings: solid-state; for degradation (in words): up to 171 hours
Protocol: as §1, §2, §3

[3] = ambient laboratory conditions, 0 hours
[4] = ambient laboratory conditions, 3 hours
[5] = ambient laboratory conditions, 50 hours
[6] = ambient laboratory conditions, 171 hours
[7] = ambient laboratory conditions, 171 hours, listed as Amorphous
[8] = forced illumination, 171 hours, listed as Amorphous
[9] = sealed under nitrogen in amber glass bottles, ambient laboratory conditions, 0 hours
[10] = sealed under nitrogen in amber glass bottles, ambient laboratory conditions, 3 hours
[11] = sealed under nitrogen in amber glass bottles, ambient laboratory conditions, 50 hours
[12] = sealed under nitrogen in amber glass bottles, ambient laboratory conditions, 171 hours
[13] = sealed under nitrogen in amber glass bottles, ambient laboratory conditions, 171 hours, listed as Amorphous
[14] = sealed under nitrogen in amber glass bottles, forced illumination, 0 hours
[15] = sealed under nitrogen in amber glass bottles, forced illumination, 3 hours
[16] = sealed under nitrogen in amber glass bottles, forced illumination, 50 hours
[17] = sealed under nitrogen in amber glass bottles, forced illumination, 171 hours
[18] = sealed under nitrogen in amber glass bottles, forced illumination, 171 hours, listed as Amorphous
[19] = sealed under nitrogen in clear glass bottles, forced illumination
[20] = sealed under nitrogen in clear glass bottles, forced illumination, 0 hours
[21] = sealed under nitrogen in clear glass bottles, forced illumination, 3 hours
[22] = sealed under nitrogen in clear glass bottles, forced illumination, 50 hours
[23] = sealed under nitrogen in clear glass bottles, forced illumination, 171 hours
[24] = unsealed clear glass bottles, forced illumination
[25] = unsealed clear glass bottles, forced illumination, 0 hours
[26] = unsealed clear glass bottles, forced illumination, 3 hours
[27] = unsealed clear glass bottles, forced illumination, 50 hours
[28] = unsealed clear glass bottles, forced illumination, 171 hours

For `O=C(NO)c1ccc(CNC(=O)c2[nH]c(-c3ccc(O)cc3)cc2-c2ccoc2)cc1` [amorphous QTX125, 3-(3-Furyl)-N-{4-[(hydroxyamino)carbonyl]benzyl}-5-(4-hydroxyphenyl)-1H-pyrrole-2-carboxamide], the “HPLC peak area, QTX125 RRT 1.00” value [1, 3] was 96.74%, the “HPLC peak area, RRT 1.04” value [1, 3] was 1.32% and the “HPLC peak area, RRT 1.12” value [1, 3] was 0.35%. The “HPLC peak area, QTX125 RRT 1.00” value [1, 4] was 92.10%, the “HPLC peak area, RRT 1.04” value [1, 4] was 0.94% and the “HPLC peak area, RRT 1.12” value [1, 4] was 0.48%. For the same molecule, the “HPLC peak area, QTX125 RRT 1.00” value [1, 5] was 95.89%, the “HPLC peak area, RRT 1.04” value [1, 5] was 1.03% and the “HPLC peak area, RRT 1.12” value [1, 5] was 0.54%. For the same molecule, the “HPLC peak area, QTX125 RRT 1.00” value [1, 6] was 91.98%, the “HPLC peak area, RRT 1.04” value [1, 6] was 2.30% and the “HPLC peak area, RRT 1.12” value [1, 6] was 1.14%. The “HPLC peak area, QTX125 RRT 1.00” value [1, 7] was 91.98%, the “HPLC peak area, RRT 1.04” value [1, 7] was 2.30% and the “HPLC peak area, RRT 1.12” value [1, 7] was 1.14%. For the same molecule, the “degradation (in words)” value ([1]; ambient laboratory conditions) was “degrades”, the “HPLC peak area, QTX125 RRT 1.00” value ([1]; forced illumination, 0 hours) was 96.74% and the “HPLC peak area, RRT 1.04” value ([1]; forced illumination, 0 hours) was 1.32%. For the same molecule, the “HPLC peak area, RRT 1.12” value ([1]; forced illumination, 0 hours) was 0.35%, the “HPLC peak area, QTX125 RRT 1.00” value ([1]; forced illumination, 3 hours) was 96.31% and the “HPLC peak area, RRT 1.04” value ([1]; forced illumination, 3 hours) was 0.92%. For the same molecule, the “HPLC peak area, RRT 1.12” value ([1]; forced illumination, 3 hours) was 0.46%, the “HPLC peak area, QTX125 RRT 1.00” value ([1]; forced illumination, 50 hours) was 94.55% and the “HPLC peak area, RRT 1.04” value ([1]; forced illumination, 50 hours) was 1.27%. For the same molecule, the “HPLC peak area, RRT 1.12” value ([1]; forced illumination, 50 hours) was 0.55%, the “HPLC peak area, QTX125 RRT 1.00” value ([1]; forced illumination, 171 hours) was 87.29% and the “HPLC peak area, RRT 1.04” value ([1]; forced illumination, 171 hours) was 2.33%. For the same molecule, the “HPLC peak area, RRT 1.12” value ([1]; forced illumination, 171 hours) was 1.03%, the “HPLC peak area, QTX125 RRT 1.00” value [1, 8] was 87.29% and the “HPLC peak area, RRT 1.04” value [1, 8] was 2.33%. For the same molecule, the “HPLC peak area, RRT 1.12” value [1, 8] was 1.03%, the “degradation (in words)” value ([1]; forced illumination) was “degrades” and the “HPLC peak area, QTX125 RRT 1.00” value [2, 9] was 96.74%. The “HPLC peak area, RRT 1.04” value [2, 9] was 1.32%, the “HPLC peak area, RRT 1.12” value [2, 9] was 0.35% and the “HPLC peak area, QTX125 RRT 1.00” value [2, 10] was 96.75%. For the same molecule, the “HPLC peak area, RRT 1.04” value [2, 10] was 1.26%, the “HPLC peak area, RRT 1.12” value [2, 10] was 0.36% and the “HPLC peak area, QTX125 RRT 1.00” value [2, 11] was 96.61%. For the same molecule, the “HPLC peak area, RRT 1.04” value [2, 11] was 0.71%, the “HPLC peak area, RRT 1.12” value [2, 11] was 0.39% and the “HPLC peak area, QTX125 RRT 1.00” value [2, 12] was 96.16%. For the same molecule, the “HPLC peak area, RRT 1.04” value [2, 12] was 1.46%, the “HPLC peak area, RRT 1.12” value [2, 12] was 0.39% and the “HPLC peak area, QTX125 RRT 1.00” value [2, 13] was 96.16%. For the same molecule, the “HPLC peak area, RRT 1.04” value [2, 13] was 1.46%, the “degradation (in words)” value ([2]; sealed under nitrogen in amber glass bottles, ambient laboratory conditions) was “evidence of slight degradation” and the “HPLC peak area, QTX125 RRT 1.00” value [2, 14] was 96.74%. For the same molecule, the “HPLC peak area, RRT 1.04” value [2, 14] was 1.32%, the “HPLC peak area, RRT 1.12” value [2, 14] was 0.35% and the “HPLC peak area, QTX125 RRT 1.00” value [2, 15] was 96.94%. The “HPLC peak area, RRT 1.04” value [2, 15] was 1.04%, the “HPLC peak area, RRT 1.12” value [2, 15] was 0.35% and the “HPLC peak area, QTX125 RRT 1.00” value [2, 16] was 96.12%. The “HPLC peak area, RRT 1.04” value [2, 16] was 1.09%, the “HPLC peak area, RRT 1.12” value [2, 16] was 0.38% and the “HPLC peak area, QTX125 RRT 1.00” value [2, 17] was 94.43%. For the same molecule, the “HPLC peak area, RRT 1.04” value [2, 17] was 1.70%, the “HPLC peak area, RRT 1.12” value [2, 17] was 0.47% and the “HPLC peak area, QTX125 RRT 1.00” value [2, 18] was 94.43%. For the same molecule, the “HPLC peak area, RRT 1.04” value [2, 18] was 1.70%, the “HPLC peak area, RRT 1.12” value [2, 18] was 0.47% and the “degradation (in words)” value ([2]; sealed under nitrogen in amber glass bottles, forced illumination) was “degrades slightly”. For the same molecule, the “colour change of the solid material” value [2, 19] was “change in colour from off white/beige to brown”, the “HPLC peak area, QTX125 RRT 1.00” value [2, 20] was 96.74% and the “HPLC peak area, RRT 1.04” value [2, 20] was 1.32%. The “HPLC peak area, RRT 1.12” value [2, 20] was 0.35%, the “HPLC peak area, QTX125 RRT 1.00” value [2, 21] was 95.97% and the “HPLC peak area, RRT 1.04” value [2, 21] was 1.51%. The “HPLC peak area, RRT 1.12” value [2, 21] was 0.38%, the “HPLC peak area, QTX125 RRT 1.00” value [2, 22] was 89.64% and the “HPLC peak area, RRT 1.04” value [2, 22] was 4.38%. For the same molecule, the “HPLC peak area, RRT 1.12” value [2, 22] was 0.60%, the “HPLC peak area, QTX125 RRT 1.00” value [2, 23] was 84.46% and the “HPLC peak area, RRT 1.04” value [2, 23] was 6.61%. The “HPLC peak area, RRT 1.12” value [2, 23] was 0.90%, the “degradation (in words)” value [2, 19] was “degrades under forced illumination to two principal components” and the “colour change of the solid material” value [2, 24] was “change in colour from off white/beige to brown”. For the same molecule, the “HPLC peak area, QTX125 RRT 1.00” value [2, 25] was 96.74%, the “HPLC peak area, RRT 1.04” value [2, 25] was 1.32% and the “HPLC peak area, RRT 1.12” value [2, 25] was 0.35%. For the same molecule, the “HPLC peak area, QTX125 RRT 1.00” value [2, 26] was 95.81%, the “HPLC peak area, RRT 1.04” value [2, 26] was 1.61% and the “HPLC peak area, RRT 1.12” value [2, 26] was 0.39%. For the same molecule, the “HPLC peak area, QTX125 RRT 1.00” value [2, 27] was 88.70%, the “HPLC peak area, RRT 1.04” value [2, 27] was 4.64% and the “HPLC peak area, RRT 1.12” value [2, 27] was 0.63%. For the same molecule, the “HPLC peak area, QTX125 RRT 1.00” value [2, 28] was 83.01%, the “HPLC peak area, RRT 1.04” value [2, 28] was 7.15% and the “HPLC peak area, RRT 1.12” value [2, 28] was 0.90%. The “degradation (in words)” value [2, 24] was “degrades under forced illumination to two principal components”.
